How the values were obtained:
Assay in all cases: [3H]IAA saturation radioligand binding
ASK1·TIR1·IAA7 = target: T1, ASK1·TIR1·IAA7 (Arabidopsis thaliana, UniProt Q38825+Q570C0)
T1 construct: full-length IAA7 as GST fusion from E. coli, GST kept; with SKP1-like protein 1A
T1 sequence (Q570C0 1-594): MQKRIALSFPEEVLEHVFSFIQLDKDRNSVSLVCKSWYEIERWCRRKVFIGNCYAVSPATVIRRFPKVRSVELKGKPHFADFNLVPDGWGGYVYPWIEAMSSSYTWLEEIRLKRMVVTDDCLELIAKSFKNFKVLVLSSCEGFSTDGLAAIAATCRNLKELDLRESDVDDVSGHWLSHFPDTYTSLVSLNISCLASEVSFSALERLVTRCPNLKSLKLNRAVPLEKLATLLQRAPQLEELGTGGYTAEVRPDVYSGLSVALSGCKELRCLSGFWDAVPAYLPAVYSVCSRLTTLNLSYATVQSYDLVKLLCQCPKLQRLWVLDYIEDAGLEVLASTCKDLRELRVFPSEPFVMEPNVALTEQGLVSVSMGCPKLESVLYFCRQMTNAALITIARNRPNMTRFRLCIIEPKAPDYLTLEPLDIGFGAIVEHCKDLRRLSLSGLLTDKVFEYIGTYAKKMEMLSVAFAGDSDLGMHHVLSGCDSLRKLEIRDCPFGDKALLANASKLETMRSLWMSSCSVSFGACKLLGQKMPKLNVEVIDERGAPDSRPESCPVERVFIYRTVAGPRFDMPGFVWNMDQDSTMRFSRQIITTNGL
T1 sequence (Q38825 1-243): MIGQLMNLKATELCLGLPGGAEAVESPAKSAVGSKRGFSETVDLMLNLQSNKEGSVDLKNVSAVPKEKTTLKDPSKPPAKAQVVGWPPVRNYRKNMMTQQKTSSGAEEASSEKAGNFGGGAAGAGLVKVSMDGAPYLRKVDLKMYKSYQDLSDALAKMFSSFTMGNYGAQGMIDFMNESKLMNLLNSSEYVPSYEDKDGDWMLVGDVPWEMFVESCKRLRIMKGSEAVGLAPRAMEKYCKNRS
T1 sequence (Q39255 1-160 partner): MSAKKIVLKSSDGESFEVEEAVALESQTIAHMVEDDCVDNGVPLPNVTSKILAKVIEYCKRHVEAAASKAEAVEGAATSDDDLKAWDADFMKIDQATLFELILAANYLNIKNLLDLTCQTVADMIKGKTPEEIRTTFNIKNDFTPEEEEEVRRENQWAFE

TIR1·IAA (7-7-7-7-12) = target: T2, TIR1·IAA (7-7-7-7-12); design: species or system Arabidopsis thaliana; conditions: labelled compound; 0.01 µM ASK1·TIR1, 0.3 µM GST-AUX/IAA chimera, on ice 1 h; one-site fit; n = 2
T2 construct: IAA7 with its PB1 domain replaced by that of IAA12 (one seamless polypeptide: DI, linker, core degron, degron tail from IAA7); GST fusion from E. coli; with SKP1-like protein 1A

TIR1·IAA (12-12-12-12-7) = target: T3, TIR1·IAA (12-12-12-12-7); design: species or system Arabidopsis thaliana; conditions: labelled compound; 0.01 µM ASK1·TIR1, 0.3 µM GST-AUX/IAA chimera, on ice 1 h; one-site fit; n = 3
T3 construct: IAA12 with its PB1 domain replaced by that of IAA7 (one seamless polypeptide: DI, linker, core degron, degron tail from IAA12); GST fusion from E. coli; with SKP1-like protein 1A

ASK1·TIR1·IAA12 = target: T4, ASK1·TIR1·IAA12 (Arabidopsis thaliana, UniProt Q38830+Q570C0)
T4 construct: full-length IAA12 as GST fusion from E. coli, GST kept; with SKP1-like protein 1A
T4 sequence (Q570C0 1-594): T1 sequence (Q570C0 1-594)
T4 sequence (Q38830 1-239): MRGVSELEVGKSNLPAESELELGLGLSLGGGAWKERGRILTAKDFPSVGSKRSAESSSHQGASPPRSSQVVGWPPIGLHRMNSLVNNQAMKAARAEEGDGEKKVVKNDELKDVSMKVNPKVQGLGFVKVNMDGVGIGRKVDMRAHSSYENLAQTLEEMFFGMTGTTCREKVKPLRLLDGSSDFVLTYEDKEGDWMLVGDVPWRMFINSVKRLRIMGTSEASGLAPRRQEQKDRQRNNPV
T4 sequence (Q39255 1-160 partner): T1 sequence (Q39255 1-160 partner)

TIR1·IAA (7-7-7-12-7) = target: T5, TIR1·IAA (7-7-7-12-7); design: species or system Arabidopsis thaliana; conditions: labelled compound; 0.01 µM ASK1·TIR1, 0.3 µM GST-AUX/IAA chimera, on ice 1 h; one-site fit; n = 2
T5 construct: IAA7 with its degron tail replaced by that of IAA12 (one seamless polypeptide: DI, linker, core degron, PB1 from IAA7); GST fusion from E. coli; with SKP1-like protein 1A

TIR1·IAA (12-12-12-7-12) = target: T6, TIR1·IAA (12-12-12-7-12); design: species or system Arabidopsis thaliana; conditions: labelled compound; 0.01 µM ASK1·TIR1, 0.3 µM GST-AUX/IAA chimera, on ice 1 h; one-site fit; n = 3
T6 construct: IAA12 with its degron tail replaced by that of IAA7 (one seamless polypeptide: DI, linker, core degron, PB1 from IAA12); GST fusion from E. coli; with SKP1-like protein 1A

`O=C(O)Cc1c[nH]c2ccccc12` [[3H]IAA] showed a Kd (ASK1·TIR1·IAA7) of roughly 0.02 µM, a Kd (TIR1·IAA (7-7-7-7-12)) of roughly 0.043 µM and a Kd (TIR1·IAA (12-12-12-12-7)) of roughly 0.133 µM. The Kd (ASK1·TIR1·IAA12) was roughly 0.226 µM, the Kd (TIR1·IAA (7-7-7-12-7)) was roughly 0.057 µM and the Kd (TIR1·IAA (12-12-12-7-12)) was roughly 0.079 µM.

Source: article PMC7210949, “Flexibility of intrinsically disordered degrons in AUX/IAA proteins reinforces auxin co-receptor assemblies” (Nature Communications, 2020)
